Data reported in PubChem BioAssay AID1249 (Columbia University Molecular Screening Center, 2008).
Active and inactive are the calls of the source. No rule for the calls is given here.

Legend:
[1] = test system: cell-based imaging, cytoskeleton assembly phenotype, high content; experiment: modifiers of cytoskeleton assembly, confirmation, imaging, high-content imaging, retest and dose response (AID 1249);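 also: compound exposure lasted 24 h before fixation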
[2] = as above; conditions: cell-based imaging, cytoskeleton assembly phenotype, high content; cell count; at 10 µM; stronger effect = lower value

| SMILES | IC50 [1] | cell count [2] [%] |
| --- | --- | --- |
| COc1cc(N2CCCC2)c(OC)cc1/C=c1/sc2nc3ccccc3n2c1=O | > 10 µM (inactive) | 87.5 |
| COc1ccc(NC(=O)/C(Cl)=C(/Cl)S(=O)Cc2ccccc2)cn1 (configuration not stated) | > 10 µM (inactive) | 48.1 |
| O=C(CS(=O)c1ccc(C(F)(F)F)cc1[N+](=O)[O-])Oc1ccccc1 (configuration not stated) | > 10 µM (inactive) | 94.1 |
| CCN(CC)c1ccc2cc(-c3nc4ccccc4n3C)c(=O)oc2c1 | > 10 µM (inactive) | 99.7 |
| CCC1=Nc2cc(C(=O)NCCCOC)ccc2Sc2ccccc21 | > 10 µM (inactive) | 29.1 |
| CCOC(=O)c1[nH]c(C)c(C(=O)N2CCc3ccccc32)c1C | 5 µM | 31.8 |
| COc1ccc(NS(=O)(=O)c2cc(C)ccc2NC(=O)c2cc(C)oc2C)cc1 | > 10 µM (inactive) | 52 |
| CC1CCC/C=C/C2CC(O)CC2C(O)/C=C/C(=O)O1 (configuration not stated) | > 10 µM (inactive) | 33.9 |
| O=C(c1ccc(Br)cc1)c1cc([N+](=O)[O-])ccc1N1CCCCC1 | > 10 µM (inactive) | 81.7 |
| Cc1ccc(NC(=O)Cn2nnc(-c3ccccc3NC(=O)c3cccs3)n2)cc1 | > 10 µM (inactive) | 109 |
| CC(/C=N/NC(=O)c1cc(-c2ccncc2)nc2ccccc12)=C\c1ccco1 | 4.55 µM | 35.1 |
| Cc1ccc2[nH]c(-c3ccccc3)cc(=O)c2c1 | > 10 µM (inactive) | 41.3 |
| Cc1ccc(-c2nc(NC(=O)c3nn(C)cc3[N+](=O)[O-])sc2C)cc1C | > 10 µM (inactive) | 88 |
| CC1=CC(C)(C)N(S(=O)(=O)c2ccc(C)cc2)c2cc(C)ccc21 | > 10 µM (inactive) | 90.8 |
| O=C(Nc1nc(-c2ccncc2)cs1)C1COc2ccccc2O1 (configuration not stated) | > 10 µM (inactive) | 92.2 |
| O=C(N/N=C/C(Br)=C/c1ccccc1)c1n[nH]c2c1CCC2 | 5 µM | 30.8 |
| COc1ccc(CCNc2nnc(Sc3nnnn3-c3ccccc3)s2)cc1OC | 1.87 µM | 32.1 |
| O=C1C(=O)c2ccc(-c3ccccc3)cc2-c2ccccc21 | > 10 µM (inactive) | 111 |

| SMILES | IC50 [1] | cell count [2] [%] |
| --- | --- | --- |
| N=c1oc2c3c4c(cc2cc1C(=O)Nc1ccccc1)CCCN4CCC3 | 8.21 µM | 99.4 |
| O=C(N/N=C/C(Br)=C\c1ccccc1)c1n[nH]c2c1CCC2 | 0.582 µM | 33.3 |
| COc1ccc(OC)c(C2C3=C(COC3=O)Nc3cc4c(cc32)OCO4)c1 (configuration not stated) | > 10 µM (inactive) | 102 |
| COc1ccc(-c2c/c(=N\c3nc(-c4ccccc4)c(C)s3)c3ccccc3o2)cc1O | > 10 µM (inactive) | 113 |
| CCOc1ccc(S(=O)(=O)Nc2cc(OC)ccc2OC)cc1 | > 10 µM (inactive) | 44.2 |
| Cn1cc(/C=N/n2cnc3scc(-c4ccc(Cl)cc4)c3c2=O)c2ccccc21 | > 10 µM (inactive) | 60.8 |
| COCCN1C(=O)c2oc3c(C)cc(C)cc3c(=O)c2C1c1cccc(O)c1 (configuration not stated) | > 10 µM (inactive) | 86 |
| COc1ccc(-c2cc(C(F)(F)F)n3nc(C(=O)Nc4cc(C)on4)cc3n2)cc1OC | > 10 µM (inactive) | 92.1 |
| N#CC1=C(N)Oc2c(ccc3ccccc23)C1c1cccs1 (configuration not stated) | > 10 µM (inactive) | 28.9 |
| CN(C)c1ccc(C(=O)c2ccc(N(C)C)c3ccccc23)cc1 | 0.599 µM | 28.2 |
| COc1cc(C2C(C#N)=C(C)NC3=C2C(=O)c2ccccc23)cc(OC)c1OC (configuration not stated) | 1.55 µM | 34 |
| COC(=O)C[C@]1(C(=O)OC)CN(C#N)N(c2ccc(Cl)cc2)C12c1ccccc1-c1ccccc12 | > 10 µM (inactive) | 82 |
| CCCOC(=O)c1[nH]c2c(c1C)C(=O)CC(c1cccs1)C2 (configuration not stated) | > 10 µM (inactive) | 40.1 |
| CC(C)Oc1ccccc1C1CC(=O)Nc2cc3c(cc21)OCO3 (configuration not stated) | > 10 µM (inactive) | 113 |
| CC(=O)Nc1ccc(S(=O)(=O)NC2(C(F)(F)F)C(=O)Nc3c2c(=O)[nH]c(=O)n3C)cc1 (configuration not stated) | > 10 µM (inactive) | 90.8 |
| O=S(=O)(c1ccc2c(c1)C(=NO)c1cc(S(=O)(=O)N3CCCCC3)ccc1-2)N1CCCCC1 | > 10 µM (inactive) | 126 |
| CCCOc1ccccc1C1CC(=O)Nc2cc3c(cc21)OCCO3 (configuration not stated) | > 10 µM (inactive) | 125 |
| CCN(CC)c1ccc2cc(-c3nc4ccccc4[nH]3)c(=O)oc2c1 | > 10 µM (inactive) | 96.6 |
